According to US11834414B2, “1-methyl-4-[(4-phenylphenyl)sulfonylmethyl]cyclohexyanol and 1-methyl-4-[[4-(2-pyridyl)phenyl]sulfonylmethyl]cyclohexanol compounds and their therapeutic use” (Modern Biosciences Limited, priority 2018, dated 2023):
Converted amounts (≈) assume the structure as drawn.

Experiments:
[1] = system: Thp1 human monocytic cells; assay: Thp1 Monocyte ATP Production Assay; type: cell-based; details: for IC50: Homo sapiens, THP-1, 24 h, Thp1 cells, 24 hour incubation, ATPLite, 9-point range 10 μM to 10 nM, mean of 2 independent experiments
How it was run: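 Cells plated at 112500/well in glucose-free RPMI-1640 with 1% FBS and exposed to compound for 24 h at 37 °C/5% CO2. ATP quantified by luciferase luminescence (ATPlite) and expressed as % of control viability. IC50 from 4-parameter fit, mean of two experiments.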

[2] = Aqueous solubility in FaSSIF; type: physicochemical; details: pH 6.5, three replicates; for solubility at 16 h: kinetic from dmso stock
Procedure: Aqueous solubility was measured by equilibration of compounds with fasted state simulated intestinal fluid (FaSSIF) and quantified spectrophotometrically.
Preparation of blank FaSSIF: 0.21 g of sodium hydroxide (NaOH) pellets, 1.97 g of dihydrogen sodium phosphate (NaH2PO4.2H2O) and 3.09 g of sodium chloride (NaCl) were dissolved in 400 mL of deionised water. The pH was adjusted to 6.5 using 1 M hydrochloric acid and further deionised water added to a final volume of 500 mL.
Preparation of FaSSIF: 0.056 g of SIF Powder (containing sodium taurocholate and lecithin) (Phares AG) was dissolved in 25 mL of blank FaSSIF and stirred until the powder was completely dissolved. The solution was allowed to stand for 2 hours during which it became opalescent; it was used within 24 hours. The final solution composition was characterised as follows: • Sodium taurocholate: 3 mM • Lecithin: 0.75 mM • Osmolarity: 270±10 mOsmol • pH: 6.5
The optical density was measured at the end of the incubation period for test compounds and a reference used to determine solubility. In brief, two samples were prepared for each determination: a reference sample consisting of a stock solution of test compound in DMSO diluted in system solution (a phosphate free, low absorption buffer) and propanol; and a test sample (prepared in triplicate) consisting of 0.5 mL FaSSIF spiked with test compound at 0.2 mM. Each sample was incubated at room temperature for 16 hours with constant shaking at 250 rpm. At the end of the incubation period, 0.3 mL of each sample was filtered through a pION filter plate (PION, Woburn MA), diluted 1:1 with propanol and scanned using UV spectrophotometry at λmax ([…]) using a Spectra Max Plus—Version 2.1000 (Molecular Devices, Sunnyvale, CA), with pSOL Explorer solubility determination software (pION, Woburn, MA).
FaSSIF solubility was calculated using the following formula:
[formula] • wherein: • “OD” is the optical density; • “Cr” is the concentration of the reference (33.4 μM); and • “molecular weight” is for the test compound (e.g., 381.44 for ABD735).

[3] = target: CYP2C19 (Homo sapiens (Human), UniProt P33261); assay: Human Cytochrome P450 Inhibition Assay (Bactosomes); type: in vitro ADME; details: recombinant Bactosomes, 10 minutes, 37° C.
Sequence of CYP2C19 (P33261 whole entry): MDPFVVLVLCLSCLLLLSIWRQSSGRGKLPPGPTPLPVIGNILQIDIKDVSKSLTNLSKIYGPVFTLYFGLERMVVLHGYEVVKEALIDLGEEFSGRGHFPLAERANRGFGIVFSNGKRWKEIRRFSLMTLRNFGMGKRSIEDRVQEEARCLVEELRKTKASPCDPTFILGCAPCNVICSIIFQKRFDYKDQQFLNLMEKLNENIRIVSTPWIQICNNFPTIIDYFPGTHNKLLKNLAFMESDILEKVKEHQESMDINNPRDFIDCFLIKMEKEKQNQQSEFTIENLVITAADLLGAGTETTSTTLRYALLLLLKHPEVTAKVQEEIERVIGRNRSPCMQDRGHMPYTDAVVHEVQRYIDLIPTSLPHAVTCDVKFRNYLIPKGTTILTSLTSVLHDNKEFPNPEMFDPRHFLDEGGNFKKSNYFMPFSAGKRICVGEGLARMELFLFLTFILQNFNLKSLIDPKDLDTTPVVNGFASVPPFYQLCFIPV

[4] = target: CYP2D6 (Homo sapiens (Human), UniProt P10635); assay: as above; type: in vitro ADME; details: recombinant Bactosomes, 10 minutes, 37° C.
Sequence of CYP2D6 (P10635 whole entry): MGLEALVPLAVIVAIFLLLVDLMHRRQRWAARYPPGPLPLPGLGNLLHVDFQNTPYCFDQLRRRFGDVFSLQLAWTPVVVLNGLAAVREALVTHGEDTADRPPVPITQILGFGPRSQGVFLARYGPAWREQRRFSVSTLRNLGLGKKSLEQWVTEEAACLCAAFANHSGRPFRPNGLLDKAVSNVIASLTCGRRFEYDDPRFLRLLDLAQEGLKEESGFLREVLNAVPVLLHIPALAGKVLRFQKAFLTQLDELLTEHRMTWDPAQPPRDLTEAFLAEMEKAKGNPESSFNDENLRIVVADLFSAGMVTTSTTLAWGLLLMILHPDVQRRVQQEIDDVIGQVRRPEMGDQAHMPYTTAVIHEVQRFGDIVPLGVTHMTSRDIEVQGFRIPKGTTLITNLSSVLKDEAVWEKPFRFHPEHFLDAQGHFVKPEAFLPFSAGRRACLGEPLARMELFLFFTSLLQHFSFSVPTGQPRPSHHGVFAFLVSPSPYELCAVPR

[5] = system: collagen-induced arthritis in DBA/1j mice; assay: Mouse Collagen-Induced Arthritis; type: in vivo; details: 10 mg/kg/day, once daily for 14 days, arthritic index vs control
Procedure: Seven- to eight-week-old male DBA/1j mice were used for all procedures. Animals were housed in groups of 10, and were maintained at 21° C.±2° C. on a 12-hour light/dark cycle with food and water ad libitum. Complete Freund's adjuvant (CFA) was prepared by emulsifying bovine type II collagen at 4 mg/mL with a 4 mg/mL suspension of Mycobacterium tuberculosis H37Ra in Incomplete Freund's Adjuvant (IFA) (0.85 mL paraffin oil and 0.15 mL mannide monooleate) in a 1:1 (v/v) ratio. All mice were immunised subcutaneously with 200 μg of bovine type II collagen in CFA. 21 days later, all mice were immunised subcutaneously with 100 μg of bovine type II collagen in IFA. The mice started to develop signs and symptoms of arthritis following the ‘booster’ immunisation.
For macroscopic assessment of arthritis, the following signs were monitored in each paw of each mouse three times per week and summed to generate the Arthritic Index (AI) (the maximum AI for one animal is 16): • 0=no visible effects of arthritis. • 1=oedema and/or erythema of 1 digit. • 2=oedema and/or erythema of 2 digits. • 3=oedema and/or erythema of more than 2 digits. • 4=severe arthritis of entire paw and digits.
Animals were sorted into treatment groups with a mean arthritic index of 2.5 and then dosed once daily for 14 days with compound: by oral gavage for test compounds, or by subcutaneous injection at a dose of 10 mg/kg for the positive control, etanercept. After completion of the experiment, the mice were sacrificed.
The data were analysed by generating an average of the arthritic index across each treatment group. The mean arthritic index was then compared to the arthritic index of control (untreated) animals using the following formula to generate a percentage inhibition of disease.

[6] = system: cytochrome P450 (CYP450) enzymes
[7] = target: CYP1A2 (Homo sapiens (Human), UniProt P05177); assay: Human Cytochrome P450 Inhibition Assay (Bactosomes)
Sequence of CYP1A2 (P05177 whole entry): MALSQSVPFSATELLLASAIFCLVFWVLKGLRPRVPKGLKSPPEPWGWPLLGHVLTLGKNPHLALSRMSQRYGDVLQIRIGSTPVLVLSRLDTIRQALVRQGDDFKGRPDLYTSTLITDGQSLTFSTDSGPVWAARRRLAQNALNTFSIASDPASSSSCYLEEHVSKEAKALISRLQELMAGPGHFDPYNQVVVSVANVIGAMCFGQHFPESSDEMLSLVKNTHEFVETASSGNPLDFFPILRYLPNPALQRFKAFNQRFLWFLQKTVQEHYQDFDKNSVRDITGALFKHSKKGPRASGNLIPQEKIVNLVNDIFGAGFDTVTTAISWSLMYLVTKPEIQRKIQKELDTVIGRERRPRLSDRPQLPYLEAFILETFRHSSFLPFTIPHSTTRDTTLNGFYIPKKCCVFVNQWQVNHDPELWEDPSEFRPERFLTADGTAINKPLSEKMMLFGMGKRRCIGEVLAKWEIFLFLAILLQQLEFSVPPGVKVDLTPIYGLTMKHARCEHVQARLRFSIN

SMILES | IC50 [1] [µM] | solubility at 16 h [2] [µg/mL] | IC50 [3] [µM] | IC50 [4] [µM] | % inhibition of disease [5] [%] | drug-drug interaction liability, CYP450 inhibition profile (in words) [6] | IC50 [7] [µM] | potency in the Thp1 monocytic ATP assay (in words) ([1]; compared to the reference compounds) | Solubility ([2]; 16 hours) [µg/mL]
C[C@]1(O)CC[C@@H](CS(=O)(=O)c2ccc(-c3ncc(F)cc3F)c(F)c2)CC1 [CHMSA-03-A, cis-4-(((4-(3,5-difluoropyridin-2-yl)-3-fluorophenyl)sulfonyl)methyl)-1-methylcyclohexan-1-ol] | 0.7 | 70 (≈ 175 µM) | > 50 | > 50 | 62 | particularly good profile | > 50 |  | 
C[C@]1(O)CC[C@@H](CS(=O)(=O)c2ccc(-c3ccc(C#N)cc3F)cc2)CC1 [CHMSA-01-A, 2-fluoro-4′-(((cis-4-hydroxy-4-methylcyclohexyl)methyl)sulfonyl)-[1,1′-biphenyl]-4-carbonitrile] | 0.7 | 10 (≈ 25.8 µM) | > 50 | > 50 | 63 | particularly good profile | > 50 |  | 
C[C@]1(O)CC[C@@H](CS(=O)(=O)c2ccc(-c3ccc(C#N)cc3F)cc2C(F)(F)F)CC1 [CHMSA-02-A, 2-fluoro-4′-(((cis-4-hydroxy-4-methylcyclohexyl)methyl)sulfonyl)-3′-(trifluoromethyl)-[1,1′-biphenyl]-4-carbonitrile] | 0.1 | 20 (≈ 43.9 µM) | > 50 | > 50 |  | particularly good profile | > 50 | excellent potency | 
C[C@]1(O)CC[C@H](NS(=O)(=O)c2ccc(-c3ccc(Cl)cc3C#N)cc2)CC1 [HMC-C-01-A, reference compound] | 0.63 |  | > 25 | 16.6 | 40 |  | 25 |  | 60 (≈ 148 µM)
